# Laboratory results as given in ChEMBL document CHEMBL3991601, “The target landscape of clinical kinase drugs” (Science, 2017).
# Calls of active or inactive are those of the source. Cut-off read from the data, not from the text of the source, for most assays here: actives have a measured Kd and inactives only a lower limit.
# How the values were obtained:
# [1] = biological target: T1, Mitogen-activated protein kinase kinase kinase 5 (Homo sapiens, UniProt Q99683)
# T1 sequence (Q99683 whole entry): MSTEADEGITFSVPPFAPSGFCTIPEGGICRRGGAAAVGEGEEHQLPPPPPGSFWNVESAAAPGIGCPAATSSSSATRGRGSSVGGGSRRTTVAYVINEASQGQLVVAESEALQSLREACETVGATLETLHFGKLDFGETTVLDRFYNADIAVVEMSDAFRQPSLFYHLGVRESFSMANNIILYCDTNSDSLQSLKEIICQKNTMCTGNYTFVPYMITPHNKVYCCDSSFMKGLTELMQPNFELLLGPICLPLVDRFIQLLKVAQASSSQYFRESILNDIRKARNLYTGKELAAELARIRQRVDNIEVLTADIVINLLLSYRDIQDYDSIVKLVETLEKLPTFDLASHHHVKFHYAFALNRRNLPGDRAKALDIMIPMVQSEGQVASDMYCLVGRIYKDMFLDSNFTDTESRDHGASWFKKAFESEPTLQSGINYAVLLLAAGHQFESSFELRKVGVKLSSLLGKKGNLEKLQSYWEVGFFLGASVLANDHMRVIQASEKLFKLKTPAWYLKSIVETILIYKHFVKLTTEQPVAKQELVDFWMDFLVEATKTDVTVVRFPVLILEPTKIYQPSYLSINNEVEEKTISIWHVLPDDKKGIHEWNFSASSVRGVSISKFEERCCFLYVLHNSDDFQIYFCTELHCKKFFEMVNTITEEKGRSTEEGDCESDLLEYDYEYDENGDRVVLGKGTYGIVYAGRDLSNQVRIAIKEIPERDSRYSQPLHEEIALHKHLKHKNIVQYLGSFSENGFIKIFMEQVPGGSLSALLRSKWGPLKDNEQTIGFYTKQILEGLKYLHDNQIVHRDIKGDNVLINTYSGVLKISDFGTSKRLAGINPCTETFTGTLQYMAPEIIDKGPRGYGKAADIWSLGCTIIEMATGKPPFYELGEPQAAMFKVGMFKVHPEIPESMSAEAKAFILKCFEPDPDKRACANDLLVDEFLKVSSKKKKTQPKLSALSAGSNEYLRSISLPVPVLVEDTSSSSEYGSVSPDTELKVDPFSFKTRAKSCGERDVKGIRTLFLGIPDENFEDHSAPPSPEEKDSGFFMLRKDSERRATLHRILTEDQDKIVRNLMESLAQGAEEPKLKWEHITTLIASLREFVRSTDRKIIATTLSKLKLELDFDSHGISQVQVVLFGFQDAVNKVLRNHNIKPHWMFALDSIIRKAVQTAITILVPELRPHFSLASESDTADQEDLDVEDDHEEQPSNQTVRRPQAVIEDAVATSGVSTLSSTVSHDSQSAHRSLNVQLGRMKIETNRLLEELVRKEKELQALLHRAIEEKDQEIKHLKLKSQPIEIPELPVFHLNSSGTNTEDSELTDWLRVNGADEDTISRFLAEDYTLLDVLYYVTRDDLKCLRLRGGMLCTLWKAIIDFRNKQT
# [2] = biological target: Serine/threonine-protein kinase PAK 4 (Homo sapiens, UniProt O96013)
# Sequence of Serine/threonine-protein kinase PAK 4 (O96013 whole entry, canonical isoform): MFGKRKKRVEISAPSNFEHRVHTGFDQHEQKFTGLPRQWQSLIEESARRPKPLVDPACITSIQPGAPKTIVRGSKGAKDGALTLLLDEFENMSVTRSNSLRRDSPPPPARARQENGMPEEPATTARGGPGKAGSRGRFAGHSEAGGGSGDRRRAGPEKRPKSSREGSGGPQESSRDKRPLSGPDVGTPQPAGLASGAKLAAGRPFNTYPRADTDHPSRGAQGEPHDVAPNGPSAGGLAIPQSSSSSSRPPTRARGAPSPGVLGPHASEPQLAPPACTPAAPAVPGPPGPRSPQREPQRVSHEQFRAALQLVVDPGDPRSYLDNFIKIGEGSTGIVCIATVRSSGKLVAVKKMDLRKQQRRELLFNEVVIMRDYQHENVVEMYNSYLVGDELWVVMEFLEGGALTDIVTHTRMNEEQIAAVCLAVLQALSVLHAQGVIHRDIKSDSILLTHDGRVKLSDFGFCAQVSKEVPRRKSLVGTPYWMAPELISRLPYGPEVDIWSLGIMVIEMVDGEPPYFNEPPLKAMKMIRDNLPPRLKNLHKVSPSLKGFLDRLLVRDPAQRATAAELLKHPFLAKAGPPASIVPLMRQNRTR
# [3] = biological target: Casein kinase I isoform delta (Homo sapiens, UniProt P48730)
# Sequence of Casein kinase I isoform delta (P48730 whole entry, canonical isoform): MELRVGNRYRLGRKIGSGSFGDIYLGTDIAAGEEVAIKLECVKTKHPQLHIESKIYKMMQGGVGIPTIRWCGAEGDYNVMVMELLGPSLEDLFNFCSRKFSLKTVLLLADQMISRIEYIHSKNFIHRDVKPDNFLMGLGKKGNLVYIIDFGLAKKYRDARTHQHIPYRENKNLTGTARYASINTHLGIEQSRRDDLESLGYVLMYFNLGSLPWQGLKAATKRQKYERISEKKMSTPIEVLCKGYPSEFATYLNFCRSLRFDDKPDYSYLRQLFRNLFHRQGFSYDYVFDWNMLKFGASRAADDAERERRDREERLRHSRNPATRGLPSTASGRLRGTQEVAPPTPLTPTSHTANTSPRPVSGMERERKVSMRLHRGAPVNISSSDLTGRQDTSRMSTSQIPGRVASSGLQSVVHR
# [4] = biological target: T2, Acyl-CoA dehydrogenase family member 10 (Homo sapiens, UniProt Q6JQN1)
# T2 sequence (Q6JQN1 whole entry): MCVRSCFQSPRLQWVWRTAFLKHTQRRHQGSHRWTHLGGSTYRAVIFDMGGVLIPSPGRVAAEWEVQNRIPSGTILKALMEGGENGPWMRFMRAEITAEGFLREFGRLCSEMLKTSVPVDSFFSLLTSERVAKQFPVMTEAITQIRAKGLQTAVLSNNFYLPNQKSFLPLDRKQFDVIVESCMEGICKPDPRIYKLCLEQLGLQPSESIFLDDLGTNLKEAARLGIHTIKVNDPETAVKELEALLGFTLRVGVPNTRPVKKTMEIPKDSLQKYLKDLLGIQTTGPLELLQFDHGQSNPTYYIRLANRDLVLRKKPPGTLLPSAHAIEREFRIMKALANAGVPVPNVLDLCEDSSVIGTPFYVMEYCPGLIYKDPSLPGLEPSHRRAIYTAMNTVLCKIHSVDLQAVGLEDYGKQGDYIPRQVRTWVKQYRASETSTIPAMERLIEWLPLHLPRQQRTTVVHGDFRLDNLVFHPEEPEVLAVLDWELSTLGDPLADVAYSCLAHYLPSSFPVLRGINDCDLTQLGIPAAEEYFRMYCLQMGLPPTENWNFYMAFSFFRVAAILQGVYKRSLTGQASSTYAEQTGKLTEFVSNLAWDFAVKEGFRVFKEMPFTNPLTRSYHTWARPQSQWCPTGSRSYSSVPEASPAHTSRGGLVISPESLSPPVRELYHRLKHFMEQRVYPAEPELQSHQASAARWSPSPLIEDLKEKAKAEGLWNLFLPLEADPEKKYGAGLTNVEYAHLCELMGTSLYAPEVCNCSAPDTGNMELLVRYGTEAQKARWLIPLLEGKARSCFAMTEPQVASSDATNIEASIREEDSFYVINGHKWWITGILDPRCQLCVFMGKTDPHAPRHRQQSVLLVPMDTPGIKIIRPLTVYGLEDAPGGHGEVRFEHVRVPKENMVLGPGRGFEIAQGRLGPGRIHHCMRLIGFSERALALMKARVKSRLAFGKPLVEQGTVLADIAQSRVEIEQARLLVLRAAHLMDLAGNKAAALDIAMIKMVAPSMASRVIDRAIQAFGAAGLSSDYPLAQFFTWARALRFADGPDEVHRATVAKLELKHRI
# [5] = biological target: Mitogen-activated protein kinase kinase kinase kinase 1 (Homo sapiens, UniProt Q92918)
# Sequence of Mitogen-activated protein kinase kinase kinase kinase 1 (Q92918 whole entry): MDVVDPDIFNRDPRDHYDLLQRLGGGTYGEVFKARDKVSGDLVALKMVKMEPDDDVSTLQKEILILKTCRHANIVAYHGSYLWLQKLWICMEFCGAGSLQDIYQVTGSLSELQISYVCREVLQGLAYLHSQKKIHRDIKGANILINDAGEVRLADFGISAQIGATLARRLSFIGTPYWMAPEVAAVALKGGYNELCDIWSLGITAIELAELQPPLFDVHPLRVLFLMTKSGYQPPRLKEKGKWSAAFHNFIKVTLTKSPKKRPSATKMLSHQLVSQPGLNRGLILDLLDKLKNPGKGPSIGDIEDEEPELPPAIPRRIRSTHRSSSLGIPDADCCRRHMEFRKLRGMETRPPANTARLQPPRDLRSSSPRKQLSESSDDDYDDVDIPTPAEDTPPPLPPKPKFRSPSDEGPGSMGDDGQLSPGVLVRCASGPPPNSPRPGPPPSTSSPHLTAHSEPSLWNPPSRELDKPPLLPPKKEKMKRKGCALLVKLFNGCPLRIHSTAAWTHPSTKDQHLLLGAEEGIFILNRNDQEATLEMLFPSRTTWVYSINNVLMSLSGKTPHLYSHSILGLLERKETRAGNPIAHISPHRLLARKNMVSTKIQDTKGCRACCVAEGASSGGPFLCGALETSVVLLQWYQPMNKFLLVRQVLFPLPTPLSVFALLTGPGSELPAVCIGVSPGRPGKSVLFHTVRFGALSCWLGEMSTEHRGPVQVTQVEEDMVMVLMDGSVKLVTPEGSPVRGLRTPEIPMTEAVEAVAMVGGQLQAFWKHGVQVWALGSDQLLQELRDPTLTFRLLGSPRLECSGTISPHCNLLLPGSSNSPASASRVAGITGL
# Note: in the data inactive means no Kd found up to 30 µM.
Compound,Kd [1],Kd [2],Kd [3],Kd [4],Kd [5]
Cn1c(=O)c(F)c(Nc2ccc(I)cc2F)c2c(=O)n(C[C@@H](O)CO)cnc21 [TAK-733],> 30 µM (inactive),> 30 µM (inactive),> 30 µM (inactive),> 30 µM (inactive),> 30 µM (inactive)
COc1cc2ncnc3c2cc1OCCCCCN(C)Cc1ccc(Br)cc1N3 [JNJ-26483327],> 30 µM (inactive),> 30 µM (inactive),> 30 µM (inactive),> 30 µM (inactive),> 30 µM (inactive)
COc1cc2ncnc(Nc3ccc(F)c(Cl)c3)c2cc1NC(=O)/C=C/CN1CCCCC1 [DACOMITINIB ANHYDROUS],> 30 µM (inactive),> 30 µM (inactive),> 30 µM (inactive),> 30 µM (inactive),> 30 µM (inactive)
C#Cc1cccc(Nc2ncnc3cc4c(cc23)OCCOCCOCCO4)c1 [ICOTINIB],> 30 µM (inactive),> 30 µM (inactive),> 30 µM (inactive),> 30 µM (inactive),> 30 µM (inactive)
Cc1cc(C(=O)Nc2cc(Oc3ccc4nc(NC(=O)C5CC5)cn4n3)ccc2C)n(C)n1 [TAK-593],> 30 µM (inactive),> 30 µM (inactive),> 30 µM (inactive),> 30 µM (inactive),> 30 µM (inactive)
C[C@]1(O)C[C@@H](c2nc(-c3ccc4ccc(-c5ccccc5)nc4c3)c3c(N)nccn32)C1 [LINSITINIB],> 30 µM (inactive),–,–,> 30 µM (inactive),> 30 µM (inactive)
COc1cc2ncnc(Nc3ccc(O)cc3)c2cc1OC [WHI-P131],> 30 µM (inactive),> 30 µM (inactive),> 30 µM (inactive),–,> 30 µM (inactive)
O=C(O)c1ccc2c(c1)nc(Nc1cccc(Cl)c1)c1ccncc12 [SILMITASERTIB],> 30 µM (inactive),> 30 µM (inactive),> 30 µM (inactive),> 30 µM (inactive),> 30 µM (inactive)
CN(c1ncccc1CNc1nc(Nc2ccc3c(c2)CC(=O)N3)ncc1C(F)(F)F)S(C)(=O)=O [PF-00562271],> 30 µM (inactive),–,–,> 30 µM (inactive),3.98 µM (active)
O[C@H]1CC[C@H](Nc2ncc3nc(Nc4c(F)cc(F)cc4F)n([C@H]4CCOC4)c3n2)CC1 [TANZISERTIB],> 30 µM (inactive),> 30 µM (inactive),> 30 µM (inactive),> 30 µM (inactive),> 30 µM (inactive)
Cn1c(=O)n(-c2ccc(C(C)(C)C#N)cc2)c2c3cc(-c4cnc5ccccc5c4)ccc3ncc21 [DACTOLISIB],> 30 µM (inactive),–,> 30 µM (inactive),> 30 µM (inactive),> 30 µM (inactive)
S=C(NCc1ccc2c(c1)OCO2)N1CCN(c2ncnc3c2oc2ccccc23)CC1 [AMUVATINIB],> 30 µM (inactive),> 30 µM (inactive),> 30 µM (inactive),> 30 µM (inactive),> 30 µM (inactive)
CN1CCN(c2nc(C3=C(c4c[nH]c5ccccc45)C(=O)NC3=O)c3ccccc3n2)CC1 [SOTRASTAURIN],> 30 µM (inactive),> 30 µM (inactive),> 30 µM (inactive),> 30 µM (inactive),> 30 µM (inactive)
CCOc1ccn(-c2ccc(F)cc2)c(=O)c1C(=O)Nc1ccc(Oc2ccnc(N)c2Cl)c(F)c1 [BMS-777607],> 30 µM (inactive),> 30 µM (inactive),> 30 µM (inactive),> 30 µM (inactive),> 30 µM (inactive)
CC1(COc2ccc3c(c2)ncn3-c2ccc3cccc(N4CCC(N)CC4)c3n2)COC1 [CRENOLANIB],> 30 µM (inactive),–,> 30 µM (inactive),> 30 µM (inactive),> 30 µM (inactive)
Cn1cnc2c(F)c(Nc3ccc(Br)cc3Cl)c(C(=O)NOCCO)cc21 [SELUMETINIB],–,–,–,> 30 µM (inactive),–
O=S(=O)(c1cccc2cnccc12)N1CCCNCC1 [FASUDIL],> 30 µM (inactive),> 30 µM (inactive),–,> 30 µM (inactive),> 30 µM (inactive)
COc1cc2c(N3CCN(C(=O)Nc4ccc(OC(C)C)cc4)CC3)ncnc2cc1OCCCN1CCCCC1 [TANDUTINIB],–,–,–,> 30 µM (inactive),–
COc1cc2c(Oc3ccc4[nH]c(C)cc4c3F)ncnc2cc1OCCCN1CCCC1 [CEDIRANIB],–,–,–,> 30 µM (inactive),–
CC(C)(O)CC(=O)NCCn1ccc2ncnc(Nc3ccc(Oc4cccc(C(F)(F)F)c4)c(Cl)c3)c21 [TAK-285],> 30 µM (inactive),> 30 µM (inactive),> 30 µM (inactive),–,> 30 µM (inactive)
C=CCn1c(=O)c2cnc(Nc3ccc(N4CCN(C)CC4)cc3)nc2n1-c1cccc(C(C)(C)O)n1 [ADAVOSERTIB],> 30 µM (inactive),–,> 30 µM (inactive),> 30 µM (inactive),> 30 µM (inactive)
CC1(C)CNc2cc(NC(=O)c3cccnc3NCc3ccncc3)ccc21 [MOTESANIB],–,–,–,> 30 µM (inactive),–
CN(C)C/C=C/C(=O)Nc1cc2c(Nc3ccc(F)c(Cl)c3)ncnc2cc1O[C@H]1CCOC1 [AFATINIB],–,–,–,> 30 µM (inactive),–
C[C@@]1(C(=O)Nc2ccc(F)nc2)CCCN1c1nc(Nc2cc(C3CC3)n[nH]2)c2cccn2n1 [BMS-754807],–,–,–,> 30 µM (inactive),–
CCc1nc(C(N)=O)c(Nc2ccc(N3CCC(N4CCN(C)CC4)CC3)c(OC)c2)nc1NC1CCOCC1 [GILTERITINIB],> 30 µM (inactive),> 30 µM (inactive),> 30 µM (inactive),> 30 µM (inactive),–
CCN1CCN(Cc2ccc(Nc3ncc(F)c(-c4cc(F)c5nc(C)n(C(C)C)c5c4)n3)nc2)CC1 [ABEMACICLIB],> 30 µM (inactive),> 30 µM (inactive),> 30 µM (inactive),–,> 30 µM (inactive)
Cc1cc(-c2cc(OC(=O)c3ccccc3)ccc2Cl)cc2nnc(Nc3ccc(OCCN4CCCC4)cc3)nc12 [TG100-801],> 30 µM (inactive),> 30 µM (inactive),> 30 µM (inactive),> 30 µM (inactive),–
C[C@@H]1COC(Nc2ccc3ncnc(Nc4ccc(OCc5nccs5)c(Cl)c4)c3c2)=N1 [VARLITINIB],> 30 µM (inactive),> 30 µM (inactive),> 30 µM (inactive),–,> 30 µM (inactive)
CCN(CCCOc1ccc2c(Nc3cc(CC(=O)Nc4cccc(F)c4)n[nH]3)ncnc2c1)CCOP(=O)(O)O [BARASERTIB],> 30 µM (inactive),–,> 30 µM (inactive),> 30 µM (inactive),> 30 µM (inactive)
